Assay results as given in article PMC8218751, “Visualizing Borrelia burgdorferi Infection Using a Small-Molecule Imaging Probe” (Journal of Clinical Microbiology, 2021).

What was measured:
E. coli HtpG = target: T1, E. coli HtpG (Escherichia coli, UniProt P0A6Z3); assay: biochemical; assay type: binding
T1 construct: His6 (N); made in house; host or cells: E. coli BL21(DE3)
Experimental: Escherichia coli (strain BL21/DE3) genomic DNA was isolated from a lab culture generated from the cloning/expression bacterium (ThermoFisher catalog no. EC0114) by overnight proteinase K digestion at 56°C, high-salt clarification, and ethanol precipitation. […] Human Hsp90-alpha sequences were derived from cDNA generated from total mRNA of the human breast epithelial line, MCF10A. HtpG DNA sequences were PCR cloned from these DNAs using primers designed to allow in-frame cloning with GFP in the isopropyl-β-D-thiogalactopyranoside (IPTG)-inducible bacterial expression vector. […] Fusion protein cloning was done using the ligation-independent cloning procedure via single-nucleotide T4 DNA polymerase treatment of vector and purified PCR products followed by annealing of complementary single-strand ends before transformation into DH5 E. coli. […] Fusion protein synthesis was induced by incubation with 1 mM IPTG or autoinduction ([17]).
γ-linked ATP Sepharose matrix was generated as described previously by the Haystead lab ([18]). […] The clarified lysate was added to a column containing ATP-bound Sepharose. The column was washed with low-salt buffer (150 mM NaCl, 25 mM HEPES, pH 7.4, 1 mM dithiothreitol [DTT], and 60 mM MgCl2), followed by high-salt buffer (1 M NaCl, 25 mM HEPES, pH 7.4, 1 mM DTT, 0.1% IGEPAL, and 60 mM MgCl2) and once again low-salt buffer to remove unbound protein. Next, the resin with bound proteins (50 μl) was transferred to a 0.2-μm polyvinylidene fluoride filter 96-well plate (Corning) sitting on top of a black flat-bottomed 96-well catch plate (Corning). […] The eluted proteins were measured in a fluorescent plate reader to detect the GFP.
Subtle single amino acid differences are present within the catalytic clefts of these proteins, especially between residues that contact the nucleotide. […] We therefore reasoned that these differences may be sufficient to design small molecules that can similarly discriminate HtpG of stealth organisms. To test this hypothesis, we utilized a fluorescent-linked enzyme chemoproteomic strategy (FLECS) assay to test known Hsp90 inhibitors ([18]) for binding to various HtpG constructs. First, we cloned and expressed in E. coli recombinant N-terminal GFP-fusion forms of HtpG from B. burgdorferi, E. coli, and Treponema denticola, the oral spirochete, as well as human Hsp90. We then incubated lysate after protein expression with an ATP Sepharose resin to enable binding. In this assay, ATP is tethered to Sepharose beads via its γ-phosphate, enabling the nucleotide to bind to ATP binding proteins such as Hsp90 and HtpG, but is nonhydrolyzable ([24]). After proteins are bound to the ATP Sepharose resin, small molecules with affinity for the ATP binding site will elute the GFP-fusion protein, which can readily be detected and quantified on a plate fluorometer.
These compounds were selected for testing based on their known binding to human Hsp90 ([25], [26]).

B. burgdorferi = B. burgdorferi live bacterial imaging; assay type: cell-based, Borrelia burgdorferi
Experimental: B. burgdorferi strain B31 was obtained from ATCC (ATCC catalog number ATCC-35210). Cultures were grown in Barbour-Stoenner-Kelly medium (BSK-II) created using the Barbour protocol ([19]) without gelatin and supplemented with 6 % rabbit serum (Pel-Freez catalog number 31128-5) at 34°C. Low-passage-number cultures (less than 4) were utilized. Later-stage morphological variants were obtained by increasing culture time to approximately 8 days to achieve a density of ∼10^8/ml counted under dark-field microscopy.
[…] germ agglutinin (WGA) conjugated with Alexa 488 at 10 μg per ml (Biotium catalog number 29022), and cells were then washed with fresh medium and mounted with Prolong Gold with 4′,6-diamidino-2-phenylindole (DAPI). Samples were imaged on a Zeiss Axio Imager upright microscope, using 63× oil objective, and visible light for differential […] contrast (DIC) imaging and excitation at 405, 488, or 633 nm for detection of DAPI, fluorescein isothiocyanate (FITC), or HS-198, respectively.

T1 sequence (P0A6Z3 whole entry): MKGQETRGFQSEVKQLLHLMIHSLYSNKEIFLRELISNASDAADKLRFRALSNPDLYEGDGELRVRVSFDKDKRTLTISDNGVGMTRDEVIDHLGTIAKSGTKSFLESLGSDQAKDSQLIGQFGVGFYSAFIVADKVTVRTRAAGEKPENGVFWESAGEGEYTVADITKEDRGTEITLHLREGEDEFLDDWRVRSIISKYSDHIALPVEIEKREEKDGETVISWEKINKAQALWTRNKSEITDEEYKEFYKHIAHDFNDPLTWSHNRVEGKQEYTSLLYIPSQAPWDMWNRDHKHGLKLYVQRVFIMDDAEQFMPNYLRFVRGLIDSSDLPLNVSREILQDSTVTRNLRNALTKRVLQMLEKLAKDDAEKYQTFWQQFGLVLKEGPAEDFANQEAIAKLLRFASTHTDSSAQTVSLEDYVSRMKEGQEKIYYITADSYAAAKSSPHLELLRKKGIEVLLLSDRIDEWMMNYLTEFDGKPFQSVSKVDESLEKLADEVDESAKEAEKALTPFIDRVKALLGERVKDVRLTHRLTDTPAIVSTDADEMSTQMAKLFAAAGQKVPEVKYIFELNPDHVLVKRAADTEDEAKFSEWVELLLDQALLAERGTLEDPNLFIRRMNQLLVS

Structure (SMILES): Cc1nn(-c2ccc(C(=O)N(C)C)c(NCCCOCCOCCOCCOCCOCCCNCc3ccc(C(=C\C=C4/N(CCCCS(=O)(=O)O)c5ccccc5C4(C)C)/C=C/C4=[N+](CCCCS(=O)(=O)[O-])c5ccccc5C4(C)C)cc3)c2)c2c1C(=O)CC(C)(C)C2 [HS-198]
- Kd (E. coli HtpG): 5.8 ± 0.6 µM
- Release of E. coli GFP-HtpG from ATP Sepharose (E. coli HtpG; in words): released
- Uptake, share of B. burgdorferi spirochetes (B. burgdorferi; 10 μM, incubated 1 h): > 90%
- Accumulation in B. burgdorferi morphological states (B. burgdorferi; 10 μM, spirochetes, blebs, aggregates, colocalization with DAPI): accumulates in B. burgdorferi in all of its morphological states
- Effect on B. burgdorferi morphology or motility (B. burgdorferi; overnight incubation, live B. burgdorferi): does not appear to affect
